Data published in PMC8156816, “Antibacterial Activities of Homemade Matrices Miming Essential Oils Compared to Commercial Ones” (Antibiotics, 2021).
≈ marks a conversion by molar mass, not a printed value. Where two headings read alike, the source gives them in different places.

Experiments:
[1] = test system: Staphylococcus aureus LMG 15975 (MRSA); assay: Direct antibacterial activity, broth microdilution MIC; format: cell-based; settings: read-out: Direct Activity MRSA MIC
Experimental: (§1) Two types of antibacterial assays were employed as previously described. All the samples, essential oils, mixtures of essential oil types, and individual compounds were evaluated alone (direct activity) or in association with an antibiotic (indirect activity) at a sub-MIC concentration (non-active concentration). The tested strains were the Gram-positive Staphylococcus aureus LMG 15,975 (methicillin-resistant S. aureus, abbreviated as MRSA) and S. aureus LMG 21,674 (fusidic-acid-resistant S. aureus, abbreviated as FUSR). The chosen antibiotics were penicillin V and fusidic acid. The broth microdilution method in 96-well plates was used to determine the minimum inhibitory concentration (MIC). For the direct activity, samples were serially diluted to achieve a concentration ranging from 1 mg/mL to 2 μg/mL. For the indirect activity, the antibiotic was first serially diluted (from 64 to 7.103 μg/mL) and the samples were subsequently added to the wells at the defined sub-MIC concentration. These ranges were chosen because above them the sample is considered as non-active. For both assays, the inoculum was prepared from a suspension of 24-hour colonies to obtain a turbidity of 0.5 McFarland and added to the wells to achieve a final concentration of 5 × 10^5 CFU/mL. Plates were then incubated at 37 °C overnight and MTT (0.8 mg/mL) was used to determine the MIC by naked eye. A growth (Mueller–Hinton broth medium with inoculum) and a non-growth (only MHB) control were carried out. In addition, antibiotics were also always tested alone as positive controls.

[2] = test system: Staphylococcus aureus LMG 21674 (FUSR); assay: as above; format: cell-based; settings: for MIC: Staphylococcus aureus
Experimental: as §1

[3] = test system: human lung cells; settings: cited from earlier work
[4] = test system: Staphylococcus aureus LMG 15975 (MRSA); assay: Indirect antibacterial activity in association with penicillin V; format: cell-based; settings: sample at sub-MIC, versus penicillin V alone (4 μg/mL)
Description: as §1, with “All the samples, essential oils, mixtures of essential oil types, and individual compounds were evaluated alone (direct activity) or in association with an antibiotic (indirect activity) at a sub-MIC concentration (non-active concentration).” left out
(§2) The indirect activity presented in this study made use of a different method to test synergistic effects between two compounds. The difference with the traditional checkerboard method was that compound A (antibiotic) was serially diluted and compound B (essential oil/pure metabolite or homemade mixture) was added at a fix sub-MIC concentration, determined under the cytotoxic activity threshold. […] An indirect activity is observed when the MIC of the association is lower than the MIC of the antibiotic alone.

[5] = test system: Staphylococcus aureus LMG 21674 (FUSR); assay: as above; format: cell-based; settings: sample at sub-MIC, versus penicillin V alone (16 μg/mL)
Description: as §1, with “All the samples, essential oils, mixtures of essential oil types, and individual compounds were evaluated alone (direct activity) or in association with an antibiotic (indirect activity) at a sub-MIC concentration (non-active concentration).” left out
as §2

[6] = test system: MRSA strains; settings: same strain and other MRSA strains; cited from earlier work
[7] = test system: MSSA (ATCC 29,213); set-up: method as in PMID 32629822; settings: cited from earlier work
[8] = test system: green monkey kidney, mouse fibroblast, human retinal ganglion, and human colon fibroblast cell lines; settings: cited from earlier work
[9] = test system: S. aureus MTCC 7405; set-up: method as in Dahham et al. (2015); settings: ref Dahham et al. (2015); cited from earlier work
[10] = test system: S. aureus ATCC 25923 (MSSA); set-up: method as in PMID 16619365; settings: cited from earlier work
[11] = Cytotoxic activity, colorimetric MTT assay on keratinocytes; format: cell-based; settings: human, HaCaT keratinocyte cells, interpretation proposed by Döll-Boscardin et al.
Experimental: The effect of each essential oil on the global growth of the cell line was investigated through a colorimetric MTT assay as previously described. Briefly, human keratinocytes cells (HaCaT) were grown in RPMI supplemented with 10% fetal bovine serum and 0.5% penicillin-streptomycin and seeded at a density of 10 000 cells/mL in 96-well plates. […] The contact time of incubation was 72 h. Finally, after 3 to 5 hours of incubation with the MTT (0.5 mg/mL), the plates were centrifuged at 1200 rpm for 5 min, the supernatant was discarded, and the formazan crystals formed dissolved in DMSO. A spectrophotometer (680XR, BioRad, Hercules, CA, USA) was used to measure the absorbance (at 570 and 630 nm), which can be directly correlated to the number of viable cells (cell viability (% RC) = (absorbance of treated cells/absorbance of control) × 100).

[12] = sample alone, broth microdilution, median
[13] = LMG21674, sample alone, broth microdilution, median, read-out: Direct Activity FUSR MIC

MIC [1, 12] | MIC [2, 13] | Compound | decrease of the MIC of penicillin V on MRSA [4] | also measured
4 µg/mL (≈ 11.4 µM) | 16 µg/mL (≈ 45.7 µM) | CC1(C)S[C@@H]2[C@H](NC(=O)COc3ccccc3)C(=O)N2[C@H]1C(=O)O [PEN V, penicillin V] |  | 
 |  | Cc1ccc(C(C)C)cc1O [Carvacrol] | 4 fold | cytotoxicity [3]: low cytotoxicity; decrease of the MIC of penicillin V on FUSR S. aureus [5]: 4 fold; MIC [1]: 250 µg/mL (≈ 1660 µM); MIC ([2]; LMG21674, read-out: Direct Activity FUSR MIC): 62.5 µg/mL (≈ 416 µM)
250 µg/mL (≈ 1660 µM) | 125 µg/mL (≈ 832 µM) | Cc1ccc(C(C)C)c(O)c1 [Thymol] | 4 fold | cytotoxicity [3]: low cytotoxicity; MIC [6]: around 600 μg/mL
> 1000 µg/mL | > 1000 µg/mL | Cc1ccc(C(C)C)cc1 [p-cymene] |  | Direct Activity FUSR MIC [2, 12]: No direct activity
> 1000 µg/mL | 250 µg/mL (≈ 1840 µM) | C=C1CCC2CC1C2(C)C (stereo not drawn) [β-pinene] |  | 
 | 256 µg/mL (≈ 495 µM) | CC(=O)O[C@H]1C[C@@]2(C)[C@@H](C[C@@H](O)[C@H]3[C@@]4(C)CC[C@@H](O)[C@@H](C)[C@@H]4CC[C@@]32C)/C1=C(\CCC=C(C)C)C(=O)O [fusidic acid] |  | 
> 1000 µg/mL | > 1000 µg/mL | C=CC(=C)CCC=C(C)C [β-myrcene] |  | 
> 1000 µg/mL | > 1000 µg/mL | CC1=CCC(C(C)C)=CC1 [γ-terpinene] |  | Direct Activity FUSR MIC [2, 12]: No direct activity
> 1000 µg/mL | > 1000 µg/mL | C=CC(C)(O)CCC=C(C)C (stereo not shown) [Linalool] |  | IC50 at 72 h [11]: < 31.3 µg/mL

Compound | MIC [1, 12] | MIC [2, 13] | decrease of the MIC of penicillin V on MRSA [4] | also measured
C=C1CC/C=C(\C)CC[C@@H]2[C@@H]1CC2(C)C [β-caryophyllene] | > 1000 µg/mL | 31.3 µg/mL (≈ 153 µM) | 4 fold | MIC [7]: 313 µg/mL (≈ 1530 µM); decrease of the MIC of penicillin V on FUSR S. aureus [5]: 267 fold; cytotoxic effect [8]: low cytotoxic effect; MIC compared with kanamycin [9]: a better MIC on S. aureus MTCC 7405 than the kanamycin; MIC [10]: 5.1 µg/mL (≈ 25 µM)
